Results reported in paper PMC9820082, “Synthesis of 9-Hydroxy-1H-Benzo[f]chromene Derivatives with Effective Cytotoxic Activity on MCF7/ADR, P-Glycoprotein Inhibitors, Cell Cycle Arrest and Apoptosis Effects” (International Journal of Molecular Sciences, 2022).

Columns and labels:
[1] = system: HeLa (cervical cancer cell line); assay: MTT colorimetric cytotoxicity assay, HeLa; format: cell-based, human; details: 24 h incubation, mean ± standard error
Protocol: (§1) Three human cancer cell lines, PC-3 (human prostate adenocarcinoma, metastatic), […], were used to test the anti-proliferative activity of β-enaminonitrile (4a–p) using the MTT colorimetric assay at concentrations ranging from 0–100 μM. The representative active cytotoxic substances 4a, 4c, 4d, 4e, 4g, 4i, 4k and 4o were also tested against two normal cell lines, human fetal lung (HFL-1) and human diploid fibroblasts (WI-38), as well as Adriamycin (ADR)-resistant human breast cancer cells (MCF-7/ADR). The reference cytotoxic agents, Vinblastine and Doxorubicin, were used in the tests.
(§2) The cytotoxic activity was appraised using the 3-(4,5-dimethylthiazol-2-yl)-2,5-diphenyltetrazolium bromide (MTT) colorimetric assay for the antitumor cell lines, as reported previously, and the ELISA assay for MCF-7/ADR [69].

[2] = system: PC-3 (human prostate adenocarcinoma, metastatic); assay: MTT colorimetric cytotoxicity assay, PC-3; format: cell-based; details: Homo sapiens; MTT, 24 h incubation, mean ± standard error
Protocol: as §1
(§3) The tumor cell lines MCF-7, HepG-2, PC-3 MCF-7/ADR, HFL-1 and (WI-38) were obtained from the American Type Culture Collection (ATCC, Rockville, MD, USA). The cells were grown on RPMI-1640 medium supplemented with 10% inactivated fetal calf serum and 50 µg/mL gentamycin. The cells were maintained at 37 ^οC in a humidified atmosphere with 5% CO2 and were subcultured two to three times a week.
as §2

[3] = system: human diploid fibroblasts (WI-38); assay: Cytotoxicity against normal cell line WI-38; format: cell-based; details: Homo sapiens, WI-38, 24 h, 24 h incubation, mean ± standard error
Protocol: as §1, §3, §2

[4] = system: Adriamycin (ADR)-resistant human breast cancer cells (MCF-7/ADR); assay: Cytotoxicity against MCF-7/ADR cells; format: cell-based; details: 24 h exposure, mean ± standard error
Protocol: as §1, §3, §2

[5] = system: SKOV-3 (ovarian cancer cell line); assay: MTT colorimetric cytotoxicity assay, SKOV-3; format: cell-based, human; details: Homo sapiens, SK-OV-3, 24 h, 24 h incubation, mean ± standard error
Protocol: as §1, §2

[6] = system: human fetal lung (HFL-1); assay: Cytotoxicity against normal cell line HFL-1; format: cell-based; details: Homo sapiens, HFL1, 24 h, 24 h incubation, mean ± standard error
Protocol: as §1, §3, §2

[7] = system: P-glycoprotein (P-gp); assay: P-gp content in MCF-7/ADR cell lysate (human P-gp ELISA kit); format: cell-based; details: human, MCF-7/ADR cells (cell lysate); MCF-7/ADR cell lysate, 48 h, ELISA
Protocol: P-glycoprotein (P-gp)-mediated multidrug resistance (MDR) is a phenomenon in which cells become resistant to structurally and mechanistically unrelated drugs, resulting in low intracellular drug concentrations. It is one of the noteworthy problems in malignant tumor clinical therapeutics.
The content of P-gp in the MCF-7/ADR cell lysates after incubation with varying conc. (12.5–100 µM) of tested compounds 4a, 4c, 4d, 4e, 4g and 4i following exposure for 48 hr was determined using a commercial human P-gp (Permeability Glycoprotein) ELISA Kit (MBS2506188, MyBioSource Inc., San Diego, CA, USA). Absorption was recorded at 450 nm with a Spectramax Gemini fluorescence microplate reader (Molecular Devices, Sunnyvale, CA, USA).

[8] = system: MCF-7/ADR cells; assay: Annexin V/PI double staining flow cytometric apoptosis test; format: cell-based, human; details: IC50 value, 24 h
Excerpt: One of the optional mechanisms regarding the lethal action of chemotherapeutic medicines is blocking cell cycle progression, triggering apoptosis with otherwise mutual effect. […] The pivotal relation of the newly synthesized MCF-7/ADR “anticancer drugs” was further evaluated using the Annexin V/PI double staining flow cytometric test. […] In comparison to Doxorubicin’s 30% total apoptosis rate, which was nearly identical to 4a, 4c and 4g, compounds 4d, 4e and 4i were leading with percentages of 41%, 31% and 38%, respectively. Only compounds 4a (8.5%) and 4g (11%) had greater effects on necrosis compared to doxorubicin (5%). Other examined substances caused both early and late apoptosis in all treated cells (Figure 7b). Therefore, MCF-7/ADR cytotoxicity is induced by apoptotic processes, apparently without negative effects on P-gp.
(a) The dot plot of the Annexin V/PI-stained cells, treated with the indicated drugs. […] The data are expressed as the mean ± SD of three independent experiments in triplicate. Significances are shown in comparison to control cells (* p < 0.001). TEXT PRINTED IN THE PICTURE: (a) DOX.: 3.33%; 18.41%; 7.85% | (a) 4a: 8.66%; 18.17%; 4.24% | (a) 4c: 2.74%; 12.73%; 9.11% | (a) 4d: 4.85%; 27.44%; 8.73% | (a) 4e: 5.77%; 9.92%; 15.92% | (a) 4g: 11.04%; 3.94%; 7.38% | (a) 4i: 5.54%; 12.87%; 19.61% DOUBTS OF THE COPYIST ABOUT THIS PICTURE: The quadrant percentages in panel (a) are printed very small and blurred, so 3, 5, 6, 8 and 9 cannot be told apart with certainty. […] They are told apart only by their quadrant in the PI / Annexin V-FITC plot, and are listed upper left, upper right, lower right. / The sample line in each plot reads MCF7/ADR. In the 4g plot it is cut off as 'MCF7/AI'. / The panel 'Cont.' (untreated control: 1.56%, 0.15%, 0.48%) is left out because it is not a substance.

[9] = Homo sapiens, NCI/ADR-RES, 24 h

With COc1ccc(C2C(C#N)=C(N)Oc3ccc4ccc(O)cc4c32)c(OC)c1 (stereo not shown) [4k, 3-Amino-1-(2,4-Dimethoxyphenyl)-9-Hydroxy-1H-Benzo[f]chromene-2-Carbonitrile] the IC50 [1] was 6.7 ± 0.1 µM, the melting point was 242 to 243 °C and the IC50 [2] was 3.7 ± 0.3 µM. The IC50 [3] was 25.3 ± 1.3 µM, the IC50 [4, 9] was 36.8 ± 0.2 µM and the IC50 [5] was 1.7 ± 0.3 µM. It also gave an IC50 [6] of 24.2 ± 0.1 µM.

COc1cc(C2C(C#N)=C(N)Oc3ccc4ccc(O)cc4c32)cc(OC)c1OC (stereo not shown) [4o, 3-Amino-1-(3,4,5-Trimethoxyphenyl)-9-Hydroxy-1H-Benzo[f]chromene-2-Carbonitrile] gave an IC50 ([1]; Homo sapiens, HeLa, 24 h) of 5.7 ± 1.8 µM, a melting point of 252 to 253 °C and an IC50 [2] of 2.1 ± 0.8 µM. It also gave an IC50 [3] of 20.4 ± 0.3 µM, an IC50 [4] of 23.7 ± 0.4 µM and an IC50 [5] of 3.1 ± 0.1 µM. It also gave an IC50 [6] of 22.2 ± 0.4 µM.

With N#CC1=C(N)Oc2ccc3ccc(O)cc3c2C1c1c(F)cccc1F (stereo not shown) [4b, 3-Amino-1-(2,6-Difluorophenyl)-9-Hydroxy-1H-Benzo[f]chromene-2-Carbonitrile] the IC50 ([1]; Homo sapiens, HeLa, 24 h) was 6.7 ± 0.2 µM, the melting point was 193 to 194 °C and the IC50 [2] was 9.4 ± 0.5 µM. It also gave an IC50 [5] of 2 ± 0.2 µM.

Molecule N#CC1=C(N)Oc2ccc3ccc(O)cc3c2C1c1c(F)c(F)c(F)c(F)c1F (stereo not shown) [4p, 3-Amino-9-Hydroxy-1-(Perfluorophenyl)-1H-Benzo[f]chromene-2-Carbonitrile] has an IC50 ([1]; Homo sapiens, HeLa, 24 h) of 3.9 ± 0.4 µM, a melting point of 299 to 300 °C and an IC50 [2] of 4.5 ± 1.2 µM. It also gave an IC50 [5] of 4.2 ± 0.3 µM.

In the case of COc1ccc(C2C(C#N)=C(N)Oc3ccc4ccc(O)cc4c32)cc1OC (stereo not shown) [4l, 3-Amino-1-(3,4-Dimethoxyphenyl)-9-Hydroxy-1H-Benzo[f]chromene-2-Carbonitrile], the IC50 ([1]; Homo sapiens, HeLa, 24 h) is reported as 5.3 ± 0.2 µM, the melting point is reported as 268 to 269 °C and the IC50 [2] is reported as 4.1 ± 0.9 µM. The IC50 [5] was 4 ± 1.3 µM.

Molecule CC[C@]1(O)C[C@@H]2CN(CCc3c([nH]c4ccccc34)[C@@](C(=O)OC)(c3cc4c(cc3OC)N(C)[C@H]3[C@@](O)(C(=O)OC)[C@H](OC(C)=O)[C@]5(CC)C=CCN6CC[C@]43[C@@H]65)C2)C1 [Vinblastine, reference compound] has an IC50 ([1]; Homo sapiens, HeLa, 24 h) of 5.7 ± 1.1 µM, an IC50 [2] of 7.5 ± 1.3 µM and an IC50 [5] of 3.2 ± 1.2 µM.

For N#CC1=C(N)Oc2ccc3ccc(O)cc3c2C1c1c(Cl)cccc1Cl (stereo not shown) [4f, 3-Amino-1-(2,6-Dichlorophenyl)-9-Hydroxy-1H-Benzo[f]chromene-2-Carbonitrile], the IC50 ([1]; Homo sapiens, HeLa, 24 h) was 4.1 ± 0.3 µM, the melting point was 196 to 197 °C and the IC50 [2] was 26.6 ± 3.1 µM. The IC50 [5] was 7 ± 0.4 µM.

For COc1cccc2c1C(=O)c1c(O)c3c(c(O)c1C2=O)C[C@@](O)(C(=O)CO)C[C@@H]3O[C@H]1C[C@H](N)[C@H](O)[C@H](C)O1 [Doxorubicin, reference compound], the IC50 ([1]; Homo sapiens, HeLa, 24 h) was 1.5 ± 0.3 µM, the IC50 at 48 h [7] was 50.9 µM and the IC50 [2] was 1.3 ± 0.3 µM. For the same molecule, the IC50 [4, 9] was 18.6 ± 0.2 µM, the IC50 [5] was 1.1 ± 0.2 µM and the necrosis [8] was 5%.

Molecule N#CC1=C(N)Oc2ccc3ccc(O)cc3c2C1c1c(F)cccc1Cl (stereo not shown) [4h, 3-Amino-1-(2-Chloro-6-Flourophenyl)-9-Hydroxy-1H-Benzo[f]chromene-2-Carbonitrile] has an IC50 ([1]; Homo sapiens, HeLa, 24 h) of 4.7 ± 0.5 µM, a melting point of 298 to 299 °C and an IC50 [2] of 11.6 ± 0.8 µM. It also gave an IC50 [5] of 3.1 ± 0.2 µM.

Molecule COc1ccc(C2C(C#N)=C(N)Oc3ccc4ccc(O)cc4c32)c(OC)c1OC (stereo not shown) [4m, 3-Amino-1-(2,3,4-Trimethoxyphenyl)-9-Hydroxy-1H-Benzo[f]chromene-2-Carbonitrile] has an IC50 ([1]; Homo sapiens, HeLa, 24 h) of 8.8 ± 0.5 µM, a melting point of 265 to 266 °C and an IC50 [2] of 6.5 ± 1.3 µM. The IC50 [5] was 3.4 ± 0.5 µM.

For COc1cc(OC)c(C2C(C#N)=C(N)Oc3ccc4ccc(O)cc4c32)cc1OC (stereo not shown) [4n, 3-Amino-1-(2,4,5-Trimethoxyphenyl)-9-Hydroxy-1H-Benzo[f]chromene-2-Carbonitrile], the IC50 ([1]; Homo sapiens, HeLa, 24 h) was 4.9 ± 0.5 µM, the melting point was 235 to 236 °C and the IC50 [2] was 7.6 ± 1.2 µM. It also gave an IC50 [5] of 2.4 ± 0.4 µM.

For COc1cccc(C2C(C#N)=C(N)Oc3ccc4ccc(O)cc4c32)c1O (stereo not shown) [4j, 3-Amino-1-(2-Hydroxy-3-Methoxyphenyl)-9-Hydroxy-1H-Benzo[f]chromene-2-Carbonitrile], the IC50 ([1]; Homo sapiens, HeLa, 24 h) was 50.4 ± 1.3 µM, the melting point was 269 to 270 °C and the IC50 [2] was 33.5 ± 3.5 µM. The IC50 [5] was 97.4 ± 0.8 µM.
